# Test results reported in US9687429B2, “Antimicrobial compositions containing low concentrations of botanicals” (THE TRUSTEES OF COLUMBIA UNIVERSITY IN THE CITY OF NEW YORK, priority 2007, dated 2017).
# Assays:
# S. aureus [1] = assay: Five-minute kill test of solutions in 10% SDA40-B alcohol and water, colony counts; format: cell-based; details: control counts 1 × 10^6 to 5 × 10^6
# Protocol: Various concentrations of basil oil and acetic, lactic, and citric acids, separately and in combination, were prepared in 10 percent SDA40-B alcohol and water, and adjusted to 100 percent. Except for citric acid, which was added by weight, all other ingredients were measured by volume. 0.9 ml of each solution were dispensed in sterile culture tubes, in triplicate, and 0.1 ml of a 10^7 cfu/ml S. aureus culture was added to the tubes, vortexed, and then, five minutes later, 9.0 ml of drug inactivating medium was added to each tube. Serial dilutions were made with the drug inactivating medium. 0.5 ml of the dilutions were plated on trypticase soy agar (“TSA”) plates. As a control, water containing 10 percent SDA40-B alcohol was processed in parallel. The plates were incubated at 37° C. for 24-48 hours and then the colony counts were determined.
# The same methodology was used to test the antimicrobial activity of combinations of citric acid with other essential oils.
# Various concentrations of cinnamon leaf oil and citric acid were dissolved in SDA 40-B alcohol (10%) and water, and adjusted to 100 percent. Except for citric acid, which was added by weight, all other ingredients were measured by volume. 0.9 ml of each solution were dispensed in sterile culture tubes, in triplicate, and 0.1 ml of 10^7 cfu/ml of S. aureus culture was added to the tubes, vortexed, and then, five minutes later, 9.0 ml of drug inactivating medium was added to each tube. Serial dilutions were made with the drug inactivating medium. 0.5 ml of the dilutions were plated on trypticase soy agar (“TSA”) plates. As a control, water containing 10% percent SDA40-B alcohol was processed in parallel. The plates were incubated at 37° C. for 24-48 hours and then the colony counts were determined.
# The following experiments were performed to evaluate the antibacterial activity of LG and Citric acid dissolved in alcohol, where the test organism used was S. aureus. Various amounts of LG oil and Citric acid were dissolved in SDA40-B alcohol, and then water was added to result in the EO concentration shown and an alcohol concentration of 10 percent. 0.9 ml of each solution were dispensed in sterile culture tubes, in triplicate, and 0.1 ml of a 10^7 cfu/ml S. aureus culture was added to the tubes, vortexed, and then, five minutes later, 9.0 ml of drug inactivating medium was added to each tube. Serial dilutions were made with drug inactivating medium. 0.5 ml of the dilutions were plated on trypticase soy agar (“TSA”) plates. As a control, water containing 10 percent SDA40-B alcohol was processed in parallel. The plates were incubated at 37° C. for 24-48 hours and then the colony counts were determined.
# S. aureus [2] = assay: Soap rapid kill test (30 second kill) in presence of bovine serum; format: cell-based
# Protocol: The antimicrobial activity of the above soap was tested in parallel with commercial Softsoap® containing triclosan (Softsoap® Antibacterial; Colgate-Palmolive). 0.1 ml of a 10^8 cfu/ml culture of each microbe tested was mixed with 0.1 ml of bovine serum and placed in a sterile culture tube. 0.8 ml of the test soap formulation was added to the tube and vortexed for 30 seconds. Then 9.0 ml DNB was added to neutralize the activity of the soap. The tube was then vortexed and serially diluted with DNB. 0.5 ml of the diluted solution was plated on TSA plates. The same soap base lacking cinnamon oil, citric acid, and orange oil, with phosphate buffered saline mixed with the culture, were used as the controls.
# The antimicrobial activity of the above soap was tested in parallel with commercial Dial® Antibacterial Hand Soap) containing triclosan. 0.1 ml of a 10^8 cfu/ml culture of each microbe tested was mixed with 0.1 ml of bovine serum and placed in a sterile culture tube. 0.8 ml of the test soap formulation was added to the tube and vortexed for 30 seconds. Then 9.0 ml DNB was added to neutralize the activity of the soap. The tube was then vortexed and serially diluted with DNB. 0.5 ml of the diluted solution was plated on TSA plates. The same soap base lacking cinnamon oil, citric acid, and orange oil, with phosphate buffered saline mixed with the culture, were used as the controls.
# The following method was used. A mixture of 0.1 ml of 10^7 cfu/ml of S. aureus culture and 0.1 ml of bovine serum were placed in a sterile culture tube. 0.8 ml of the test soap formulation was added to the tube and vortexed for 30 seconds. 9.0 ml DFN was added to the tube to neutralize the activity of the soap; this tube was then vortexed and serially diluted with DFN. 0.5 ml of the diluted solution was plated on trypticase soy agar plates, incubated at 37° C. for 24-48 hours and the colony counts were determined. Soft Soap® and Dial® soaps containing 0.15% triclosan was also tested similarly at the same time. The soap base without essential oils and Citric acid containing the culture were used as controls.
# The following method was used. A mixture of 0.1 ml of 10^7 cfu/ml of S. aureus culture and 0.1 ml of bovine serum were placed in a sterile culture tube. 0.8 ml of the test soap formulation was added to the tube and vortexed for 30 seconds. 9.0 ml DFN was added to the tube to neutralize the activity of the soap; this tube was then vortexed and serially diluted with DFN. 0.5 ml of the diluted solution was plated on trypticase soy agar plates, incubated at 37° C. for 24-48 hrs and the colony counts were determined. Soft Soap® and Dial® soaps containing 0.15% triclosan was also tested similarly at the same time. The soap base without essential oils and citric acid containing the culture were used as controls.
# The following method was used. A mixture of 0.1 ml of 10^8 cfu/ml of S. aureus culture and 0.1 ml of bovine serum were placed in a sterile culture tube. 0.8 ml of the test soap formulation was added to the tube and vortexed for 30 seconds. 9.0 ml DFN was added to the tube to neutralize the activity of the soap; this tube was then vortexed and serially diluted with DFN. 0.5 ml of the diluted solution was plated on trypticase soy agar plates, incubated at 37° C. for 24-48 hours and the colony counts were determined.
# A mixture of 0.1 ml of 10^7 cfu/ml of S. aureus culture and 0.1 ml of bovine serum were placed in a sterile culture tube. 0.8 ml of the test soap formulation was added to the tube and vortexed for 30 seconds. 9.0 ml DFN was added to the tube to neutralize the activity of the soap; this tube was then vortexed and serially diluted with DFN.
# S. aureus [3] = details: erythromycin, gentamicin, vancomycin, ciproflaxin, clindamycin, tetracycline; cited from earlier work
# S. aureus [4] = assay: Synergistic activity of essential oils and plant extracts with citric acid, log10 reduction from control bacterial counts; format: cell-based; details: Table 202, compounds in %, control counts 1×10^7 to 5×10^7
# From the text: Log10 reduction from control bacterial counts that range from 1×10^7 to 5×10^7.
smiles,measurement,setting,value
O=C(O)CC(O)(CC(=O)O)C(=O)O [1% Citric Acid (CA)],Log10 Reduction from control bacterial counts,"S. aureus [1]; Table 105, five minutes",0.1 Log10
C=CCc1ccc(O)c(OC)c1 [eugenol],"antibacterial activity of soap, 30 second kill (in words)",S. aureus [2]; bovine serum,improved the antimicrobial effect
CC(C)=CCCC(C)=CCCC(C)=CCO [farnesol],effect on susceptibility of S. aureus to antibiotics (in words),S. aureus [3],enhanced the susceptibility of S. aureus
O=C(O)CC(O)(CC(=O)O)C(=O)O [citric acid],"antibacterial activity of soap, 30 second kill (in words)",S. aureus [2]; bovine serum,enhance the activity of soaps containing triclosan
CC(=O)O [1% Acetic acid (AA)],Log10 Reduction from control bacterial counts,"S. aureus [1]; Table 105, five minutes",0.2 Log10
"CCCCCCCCC(O)CO (centres unmarked) [decanediol, 1,2 decanediol]","antibacterial activity of soap, 30 second kill (in words)",S. aureus [2]; bovine serum,enhances the activity of Dial®-T Soap+LG-O-Cit 4
C=CC(C)(O)CCC=C(C)CCC=C(C)C (centres unmarked) [nerolidol],effect on susceptibility of S. aureus to antibiotics (in words),S. aureus [3],enhanced the susceptibility of S. aureus
"CCCCCCCCC(O)CO (centres unmarked) [1,2 decanediol(0.5%)]",Log10 reduction from control,"S. aureus [2]; Table 151, 30 second Kill, alkanediols 0.5%, soaps pH 4.5-4.6, control 2 × 10^8-5 × 10^8",1.4 Log10
CC(C)=CCCC(C)=CCCC(C)=CCO [0.25% Farnesol],Log10 Reduction from control bacterial counts,"S. aureus [1]; Table 106, five minutes",0 Log10
CC(O)C(=O)O (centres unmarked) [1% Lactic acid (LA)],Log10 Reduction from control bacterial counts,"S. aureus [1]; Table 105, five minutes",2.3 Log10
"CCCCCCCCC(O)CO (centres unmarked) [1,2 decanediol (0.3%)]",Log10 reduction from control,"S. aureus [2]; Table 150, 30 seconds, bovine serum, alkanediols 0.3%, control 2 × 10^8-5 × 10^8",0.6 Log10
CC(C)=CCC/C(C)=C/CC1CCCC1=O (centres unmarked) [apritone],effect on susceptibility of S. aureus to antibiotics (in words),S. aureus [3],enhanced the susceptibility of S. aureus
O=C(O)CC(O)(CC(=O)O)C(=O)O [1 Citric acid],Log10 Reduction from control bacterial counts,S. aureus [4],0.7 Log10
CC(C)=CCC[C@](C)(O)C1CC=C(C)CC1 (some centres unmarked) [bisabolol],effect on susceptibility of S. aureus to antibiotics (in words),S. aureus [3],enhanced the susceptibility of S. aureus
